Tests used:
[1] = tested on: tumor derived from LGR5-iCT organoid; test: Tumor size of LGR5-iCT organoid xenograft measured regularly; type: in vivo, NOG mice
Protocol: The LGR5-iCT organoid was xenografted under the renal capsule of NOG mice (7-12 weeks old, male) by the same method as Experimental Example 2. Subsequently, after a tumor was formed, the AP20187 was administered to mice daily for 5 days. In addition, control mice to which only a solvent was administered daily for 5 days. Thereafter, a tumor size of each mouse was measured regularly.
In addition, FIG. 6 is a graph showing a result obtained by measuring the size of a tumor of each of a mouse (Dimerizer) to which the AP20187 is administered and the control mouse (Vehicle), regularly. As a result, it was confirmed that the tumor size was reduced by the administration of the AP20187.
In addition, the inventors examined the expression of the LGR5 gene in the tumor tissue after the administration of the AP20187. […] In addition, it was also clear that a re-increase of the tumor size corresponds to re-expression of the LGR5 gene.

[2] = tested on: LGR5-positive cancer stem cell; test: Tumor tissue sections of LGR5-iCT organoid xenograft (tdTomato fluorescence, KRT20 immunostaining); type: in vivo, NOG mice; details: tumor section on the 5th day from start of administration, daily for 5 days
From the text: First, an IRES-iCaspase9-T2A-tdTomato construct was introduced into the LGR5 gene locus of the cultured organoid derived from colon cancer by the same method as in Experimental Example 1. Hereinafter, these organoids may be referred to as “LGR5-iCT organoids” in some cases.
iCaspase 9 is a drug-induced suicide gene. The iCaspase 9 has no activity in a monomer, but forms a dimer in the presence of AP20187 (dimerizer, APExBIO) to induce apoptosis. Also, TdTomato is a kind of red fluorescent protein (RFP).
FIG. 4 is a diagram illustrating a structure of the completed LGR5 gene locus and behavior of the drug-induced suicide gene. […] Therefore, it is possible to confirm the presence of the LGR5-positive cell by observing the fluorescence of the tdTomato. […] As a result, the fluorescence of the tdTomato becomes not observed.
The LGR5-iCT organoid was xenografted under the renal capsule of NOG mice (7-12 weeks old, male) by the same method as Experimental Example 2. […] Thereafter, a tumor size of each mouse was measured regularly.
FIGS. 5 (a) and 5(b) show fluorescence micrographs of a result obtained by extracting a tumor of each mouse on the 5th day from the start of administration of the AP20187 to prepare a tissue section and detecting the fluorescence of the tdTomato and KRT20 as a differentiation marker by immunostaining. […]

cancer stem cell = test: LGR5-iCT/CMV-GFP organoid screening, tdTomato fluorescence; type: cell-based, human; details: final concentration shown in FIG. 8; DMSO control
From the text: In addition, Irinotecan, Cetuximab, and Oxaliplatin are existing anticancer drugs. In addition, “DMSO” refers to dimethyl sulfoxide added to the medium instead of the anticancer drug as a control.

cancer cell = test: LGR5-iCT/CMV-GFP organoid screening, GFP fluorescence; type: cell-based, human; details: final concentration shown in FIG. 8; DMSO control
From the text: A CMV-GFP construct was further introduced into the LGR5-iCT organoid prepared in Experimental Example 4. In the CMV-GFP construct, a GFP gene was linked downstream of the CMV promoter, which is the forced expression promoter. Therefore, regardless of whether or not the LGR5 gene was expressed, the GFP gene was expressed in all cells and emitted fluorescence of the GFP protein. Hereinafter, these organoids may be referred to as “LGR5-iCT/CMV-GFP organoids” in some cases.
In the LGR5-iCT/CMV-GFP organoid, survival activity of the cancer cell can be observed by fluorescence of GFP, and survival activity of the cancer stem cell can be observed by fluorescence of tdTomato.
Using the LGR5-iCT/CMV-GFP organoid, high-throughput screening of existing anticancer drugs used for the treatment of colon cancer was performed, and the effects on the cancer cells and the cancer stem cells were examined.
FIG. 8 is a micrograph of an organoid showing a typical result. In FIG. 8, “BRIGHT FIELD” indicates a bright field observation image. “CMV-GFP” indicates a fluorescence micrograph obtained by observing GFP fluorescence”. “LGR5-tdTomato” indicates a fluorescence micrograph obtained by observing tdTomato fluorescence. “Merge” indicates the result obtained by synthesizing the bright-field observation image, the GFP fluorescence micrograph, and the micrograph of tdTomato fluorescence. […]

Structure (SMILES)	tumor size ([1]; after administration daily for 5 days)	tumor growth ([1]; continuous cancer stem cell treatment, tumor not completely cured)	expression of the LGR5 gene in the tumor tissue after administration ([1]; expression once disappeared, corresponds to re-increase of tumor size)	tumor size, eventually ([1]; later after the end of the 5-day administration)	effect on LGR5-negative cell [2]	effect on LGR5-positive cancer stem cell (apoptosis) [2]	effect against the cancer stem cell (tdTomato fluorescence) (cancer stem cell)	effect against the cancer cell (GFP fluorescence) (cancer cell)
CC[C@H](C(=O)N1CCCC[C@H]1C(=O)O[C@H](CCc1ccc(OC)c(OC)c1)c1cccc(OCC(=O)NCC(CNC(=O)COc2cccc([C@@H](CCc3ccc(OC)c(OC)c3)OC(=O)[C@@H]3CCCCN3C(=O)[C@@H](CC)c3cc(OC)c(OC)c(OC)c3)c2)CN(C)C)c1)c1cc(OC)c(OC)c(OC)c1 [AP20187]	reduced	could suppress tumor growth	recognized again	increased again	remained intact	completely died		
CCc1c2c(nc3ccc(OC(=O)N4CCC(N5CCCCC5)CC4)cc13)-c1cc3c(c(=O)n1C2)COC(=O)[C@]3(O)CC [irinotecan]							not effective	showed a growth suppression effect
O=C1[O][Pt]2([NH][C@@H]3CCCC[C@H]3[NH]2)[O]C1=O [oxaliplatin]							kills	kills
